Values of other authors, collected in patent US10952981B2, “Liquid pharmaceutical compositions of baclofen for oral administration” (SLAYBACK PHARMA LLC, priority 2019, dated 2021).

Concentration of baclofen obtainable (aqueous 0.1N HCl or 0.1N NaOH, Ahuja (1985)): greater than 20 mg/mL | Equilibrium concentration (as referred to for Allen et al., 1996, Johnson and Hart, 1993): 4.3 mg/mL | Solubility at near neutral pH (at a concentration of 2 mg/mL, near neutral pH): not soluble | Solubility in chloroform (chloroform): insoluble | Solubility in methanol (methanol): very slightly soluble | Solubility in water (water): slightly soluble
Compound: NCC(CC(=O)O)c1ccc(Cl)cc1 (stereo not drawn) [Baclofen, 4-amino-3-(4-chlorophenyl)-butanoic acid]
